Assay results: patent US6737383B1, “Herbicidal oxadiazolidines” (priority 1999, dated 2004)

Key:
purple nutsedge = assay: Test B pre/postemergence purple nutsedge; format: in vivo, Cyperus rotundus
Summary of the method: (§1)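 Response is a visual 0-to-10 score relative to untreated plants, where 0 means no effect and 10 means complete control, taken twelve to sixteen days after application. Treatments went onto soil at planting and onto foliage of 1- to 4-leaf plants, using a surfactant-containing non-phytotoxic solvent.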

pigweed = assay: Test B pre/postemergence pigweed; format: in vivo, Amaranthus retroflexus
Summary of the method: as §1

bamyardgrass = assay: Test B flood test barnyardgrass; format: in vivo, Echinochloa crus-galli
Summary of the method: (§2)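 Read-out is a visual response score from 0 (no effect) to 10 (complete control), assigned by comparison with untreated controls. Treatment was applied at the 2-leaf stage, and plants stayed in the greenhouse for twelve to sixteen days before scoring.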

corn = assay: Test B pre/postemergence corn; format: in vivo, Zea mays
Summary of the method: as §1

wild oat = assay: Test B pre/postemergence wild oat; format: in vivo, Avena fatua
Summary of the method: as §1

giant foxtail = assay: Test B pre/postemergence giant foxtail; format: in vivo, Setaria faberii
Summary of the method: as §1

crabgrass = assay: Test B pre/postemergence crabgrass; format: in vivo, Digitaria sanguinalis
Summary of the method: as §1

cocklebur = assay: Test B pre/postemergence cocklebur; format: in vivo, Xanthium strumarium
Summary of the method: as §1

duck salad = assay: Test B flood test duck salad; format: in vivo, Heteranthera limosa
Summary of the method: as §2

rape = assay: Test B pre/postemergence rape; format: in vivo, Brassica napus
Summary of the method: as §1

morningglory = assay: Test B pre/postemergence morningglory; format: in vivo, Ipomoea hederacea
Summary of the method: as §1

soybean = assay: Test B pre/postemergence soybean; format: in vivo, Glycine max
Summary of the method: as §1

sugar beet = assay: Test B pre/postemergence sugar beet; format: in vivo, Beta vulgaris
Summary of the method: as §1

wheat = assay: Test B pre/postemergence wheat; format: in vivo, Triticum aestivum
Summary of the method: as §1

velvetleaf = assay: Test B pre/postemergence velvetleaf; format: in vivo, Abutilon theophrasti
Summary of the method: as §1

rice = assay: Test B flood test rice; format: in vivo, Oryza sativa
Summary of the method: as §2

[1] = Preemergence, Rate 62 g/ha, scale of 0 to 10 where 0 is no effect and 10 is complete control
[2] = Preemergence, Rate 125 g/ha, 0 is no effect, 10 is complete control
[3] = Preemergence, Rate 250 g/ha, scale 0 to 10, 0 is no effect, 10 is complete control
[4] = Preemergence, Rate 500 g/ha, scale of 0 to 10 where 0 is no effect and 10 is complete control
[5] = Rate 62 g/ha, Postemergence, scale of 0 to 10 where 0 is no effect and 10 is complete control
[6] = Rate 125 g/ha, Postemergence, scale 0 to 10
[7] = Rate 500 g/ha, Postemergence, scale 0 to 10
[8] = Rate 62 g/ha, headed Pre-emergence (flood test species), scale 0 to 10 (0 no effect, 10 complete control)
[9] = Rate 125 g/ha, Pre-emergence, flood test species, scale 0 to 10 where 0 is no effect and 10 is complete control
[10] = Rate 250 g/ha, Pre-emergence, flood-test species, scale 0 to 10, 0 is no effect, 10 is complete control
[11] = Rate 500 g/ha, headed Pre-emergence (flood test species), scale 0 to 10 (0 no effect, 10 complete control)

Cc1ccccc1-n1c(=O)on(C(=O)N(c2ccccc2F)C(C)C)c1=O [Compound 204]
0: Nutsedge plant response rating (purple nutsedge; [1]) | Nutsedge plant response rating (0 to 10 scale) (purple nutsedge; [2]) | Nutsedge plant response rating (purple nutsedge; [3]) | Plant response rating, Nutsedge (purple nutsedge; [4]) | Nutsedge plant response rating (purple nutsedge; [5]) | Nutsedge plant response rating (purple nutsedge; [6]) | Plant response rating (0 to 10; 0 is no effect, 10 is complete control), Nutsedge (purple nutsedge; Rate 250 g/ha, Postemergence) | Nutsedge plant response rating (purple nutsedge; [7]) | Redroot pigweed plant response rating (pigweed; [1]) | Redroot pigweed plant response rating (0 to 10 scale) (pigweed; [2]) | Redroot pigweed plant response rating (pigweed; [3]) | Plant response rating, Redroot pigweed (pigweed; [4]) | Redroot pigweed plant response rating (pigweed; [5]) | Redroot pigweed plant response rating (pigweed; [6]) | Barnyardgrass plant response rating (bamyardgrass; [8]) | Barnyardgrass plant response rating (bamyardgrass; [9]) | Barnyardgrass plant response rating (bamyardgrass; [10]) | Plant response rating, Barnyardgrass (bamyardgrass; [11]) | Corn plant response rating (corn; [1]) | Corn plant response rating (0 to 10 scale) (corn; [2]) | Corn plant response rating (corn; [3]) | Corn plant response rating (corn; [5]) | Corn plant response rating (corn; [6]) | Plant response rating (0 to 10; 0 is no effect, 10 is complete control), Corn (corn; Rate 250 g/ha, Postemergence) | Corn plant response rating (corn; [7]) | Wild oats plant response rating (wild oat; [1]) | Wild oats plant response rating (wild oat; [5]) | Wild oats plant response rating (wild oat; [6]) | Plant response rating (0 to 10; 0 is no effect, 10 is complete control), Wild oats (wild oat; Rate 250 g/ha, Postemergence) | Giant foxtail plant response rating (giant foxtail; [5]) | Giant foxtail plant response rating (giant foxtail; [6]) | Plant response rating (0 to 10; 0 is no effect, 10 is complete control), Giant foxtail (giant foxtail; Rate 250 g/ha, Postemergence) | Crabgrass plant response rating (crabgrass; [5]) | Crabgrass plant response rating (crabgrass; [6]) | Cocklebur plant response rating (cocklebur; [1]) | Cocklebur plant response rating (0 to 10 scale) (cocklebur; [2]) | Cocklebur plant response rating (cocklebur; [3]) | Plant response rating, Cocklebur (cocklebur; [4]) | Cocklebur plant response rating (cocklebur; [5]) | Cocklebur plant response rating (cocklebur; [6]) | Ducksalad plant response rating (duck salad; [8]) | Ducksalad plant response rating (duck salad; [9]) | Ducksalad plant response rating (duck salad; [10]) | Plant response rating, Ducksalad (duck salad; [11]) | Rape plant response rating (rape; [1]) | Rape plant response rating (0 to 10 scale) (rape; [2]) | Rape plant response rating (rape; [3]) | Rape plant response rating (rape; [5]) | Rape plant response rating (rape; [6]) | Plant response rating (0 to 10; 0 is no effect, 10 is complete control), Rape (rape; Rate 250 g/ha, Postemergence) | Rape plant response rating (rape; [7]) | Morningglory plant response rating (morningglory; [1]) | Morningglory plant response rating (0 to 10 scale) (morningglory; [2]) | Morningglory plant response rating (morningglory; [3]) | Plant response rating, Morningglory (morningglory; [4]) | Soybean plant response rating (soybean; [1]) | Soybean plant response rating (0 to 10 scale) (soybean; [2]) | Soybean plant response rating (soybean; [3]) | Plant response rating, Soybean (soybean; [4]) | Sugarbeets plant response rating (sugar beet; [1]) | Sugarbeets plant response rating (0 to 10 scale) (sugar beet; [2]) | Sugarbeets plant response rating (sugar beet; [3]) | Plant response rating, Sugarbeets (sugar beet; [4]) | Sugarbeets plant response rating (sugar beet; [5]) | Sugarbeets plant response rating (sugar beet; [6]) | Plant response rating (0 to 10; 0 is no effect, 10 is complete control), Sugarbeets (sugar beet; Rate 250 g/ha, Postemergence) | Sugarbeets plant response rating (sugar beet; [7]) | Wheat plant response rating (wheat; [1]) | Wheat plant response rating (wheat; [3]) | Wheat plant response rating (wheat; [5]) | Wheat plant response rating (wheat; [6]) | Plant response rating (0 to 10; 0 is no effect, 10 is complete control), Wheat (wheat; Rate 250 g/ha, Postemergence) | Velvetleaf plant response rating (velvetleaf; [1]) | Velvetleaf plant response rating (velvetleaf; [3]) | Plant response rating, Velvetleaf (velvetleaf; [4]) | Velvetleaf plant response rating (velvetleaf; [5]) | Rice plant response rating (rice; [8]) | Rice plant response rating (rice; [9]) | Rice plant response rating (rice; [10]) | Plant response rating, Rice (rice; [11])
2: Plant response rating, Corn (corn; [4]) | Plant response rating (0 to 10; 0 is no effect, 10 is complete control), Crabgrass (crabgrass; Rate 250 g/ha, Postemergence) | Plant response rating, Wheat (wheat; [4])
1: Plant response rating (0 to 10; 0 is no effect, 10 is complete control), Cocklebur (cocklebur; Rate 250 g/ha, Postemergence) | Cocklebur plant response rating (cocklebur; [7]) | Soybean plant response rating (soybean; [5]) | Soybean plant response rating (soybean; [6]) | Plant response rating (0 to 10; 0 is no effect, 10 is complete control), Soybean (soybean; Rate 250 g/ha, Postemergence) | Velvetleaf plant response rating (velvetleaf; [6]) | Plant response rating (0 to 10; 0 is no effect, 10 is complete control), Velvetleaf (velvetleaf; Rate 250 g/ha, Postemergence)
10: Giant foxtail plant response rating (giant foxtail; [3]) | Plant response rating, Giant foxtail (giant foxtail; [4])
3: Wild oats plant response rating (wild oat; [3]) | Giant foxtail plant response rating (giant foxtail; [7]) | Plant response rating, Rape (rape; [4]) | Morningglory plant response rating (morningglory; [5]) | Morningglory plant response rating (morningglory; [6]) | Plant response rating (0 to 10; 0 is no effect, 10 is complete control), Morningglory (morningglory; Rate 250 g/ha, Postemergence)
4: Plant response rating (0 to 10; 0 is no effect, 10 is complete control), Redroot pigweed (pigweed; Rate 250 g/ha, Postemergence)
8: Crabgrass plant response rating (0 to 10 scale) (crabgrass; [2]) | Crabgrass plant response rating (crabgrass; [3]) | Plant response rating, Crabgrass (crabgrass; [4]) | Morningglory plant response rating (morningglory; [7])
6: Plant response rating, Wild oats (wild oat; [4]) | Crabgrass plant response rating (crabgrass; [1])
5: Crabgrass plant response rating (crabgrass; [7])
7: Redroot pigweed plant response rating (pigweed; [7]) | Giant foxtail plant response rating (giant foxtail; [1]) | Soybean plant response rating (soybean; [7])
9: Giant foxtail plant response rating (0 to 10 scale) (giant foxtail; [2])
